According to ChEMBL document CHEMBL4152332, “Discovery and synthesis of novel magnolol derivatives with potent anticancer activity in non-small cell lung cancer” (Eur J Med Chem, 2018):

Key:
Assay type in all cases: functional, cell-based
HCC827 = assay: Antiproliferative activity against human HCC827 cells after 72 hrs by MTT assay; conditions: HCC827, 72 h
NCI-H1975 = assay: Antiproliferative activity against human NCI-H1975 cells after 72 hrs by MTT assay; conditions: NCI-H1975, 72 h
NCI-H460 = assay: Antiproliferative activity against human H460 cells after 72 hrs by MTT assay; conditions: NCI-H460, 72 h

| IC50 (HCC827) | IC50 (NCI-H1975) | IC50 (NCI-H460) | SMILES |
| --- | --- | --- | --- |
| > 20 µM | > 20 µM | > 20 µM | C=CCc1ccc(O)c(-c2cc(CC=C)cc(CN3CCN(CC=C)CC3)c2O)c1 |
| > 20 µM | > 20 µM | > 20 µM | C=CCc1ccc(O)c(-c2cc(CC=C)cc(CN3CCN(CCCC)CC3)c2O)c1 |
| > 20 µM | > 20 µM | > 20 µM | C=CCc1ccc(O)c(-c2cc(CC=C)cc(CN3CCSCC3)c2O)c1 |
| > 20 µM | > 20 µM | > 20 µM | C=CCc1ccc(O)c(-c2cc(CC=C)cc(CN3CCC(CN)CC3)c2O)c1 |

| SMILES | IC50 (HCC827) | IC50 (NCI-H1975) | IC50 (NCI-H460) |
| --- | --- | --- | --- |
| C=CCc1cc(-c2cc(/C=C/C=O)ccc2O)ccc1O [MAGNALEDEHYDE B] | 35.5 µM | 34.1 µM | 32.4 µM |
